Data set [1] can be described thus: Inhibition of HIV-1 infectivity using peripheral bloodmonon uclear cells against the BAL-1 strain in the presence of 50% normal human serum (NHS). The format is functional.
A short description of data set [2]: in vivo. Conditions: rat.
The target of data set [3] is T1, C-C chemokine receptor type 5 (Homo sapiens, UniProt P51681). Put plainly: Inhibitory concentration of compound to displace GP120 from […] chemokine receptor 5.
Data set [4] relates to Rattus norvegicus. The data set is described as follows: Volumes of distribution in rat after po administration. Conditions: in vivo.
The subject of another data set is HeLa. The data set is described as follows: In vitro antiviral activity against HIV-1 infected HeLa cells. The format is functional. Conditions: Homo sapiens.
Data set [5] in a line: in vivo. Conditions: rat, plasma.
A short description of data set [6]: Oral bioavailability in rat. Conditions: in vivo.
Data set [7] deals with Rattus norvegicus. The data set is described as follows: Area under curve in rat after p.o. administration. Conditions: in vivo, po.
The nature of data set [8]: Inhibition of HIV-1 infectivity using peripheral bloodmonon uclear cells against the BAL-1 strain. In kind it is functional. Conditions: Homo sapiens.
The target in data set [9] is T1, C-C chemokine receptor type 5. The data set is described as follows: Displacement of [125I]-MIP-1 alpha from human […] chemokine receptor 5 expressed in CHO cells. In kind it is cell-based. For orientation: Loss of bound radioactivity is the signal in a displacement assay; it reports binding, not function.
Data set [10] is described as follows: Clearance rat (dosed at 0.5 mpk IV and 2.0 mpk po.). In kind it is ADME, organism-based. Conditions: plasma, 0.5 mg/kg, read-out: Clp.
The nature of data set [11]: Oral bioavailability in dog (dose 0.5 mg/kg i.v. and 2.0 mg/kg p.o.). Conditions: in vivo. In kind it is ADME, organism-based, Canis lupus familiaris.
A short description of data set [12]: Plasma clearance in dog (dosed at 0.5 mpk iv and 2.0 mpk orally). Conditions: 0.5 mg/kg, read-out: Clp. The format is ADME, organism-based, Canis lupus familiaris.
A short description of data set [13]: Half life in dog (dosed at 0.5 mpk iv and 2.0 mpk orally). In kind it is ADME, organism-based, Canis lupus familiaris. Conditions: in vivo.
The next data set deals with Canis familiaris. The data set is described as follows: Oral AUCN in dog (dosed at 2.0 mpk po ). Conditions: in vivo, 2.0 mg/kg.
Data set [14] can be described thus: Oral bioavailability in monkey (dosed at 0.5 mpk iv and 2.0 mpk orally). In kind it is ADME, organism-based. Conditions: cercopithecidae, in vivo, 2 mg/kg.
Data set [15] is described as follows: Half life in monkey (dosed at 0.5 mpk iv and 2.0 mpk orally). In kind it is ADME, organism-based. Conditions: cercopithecidae, in vivo.
The nature of data set [16]: Oral AUCN in monkey (dosed at 0.5 mpk iv ). In kind it is ADME, organism-based. Conditions: cercopithecidae, in vivo, 0.5 mg/kg.
A short description of data set [17]: Plasma clearance in monkey (dosed at 0.5 mpk iv and 2.0 mpk orally). In kind it is ADME, organism-based. Conditions: cercopithecidae, 0.5 mg/kg, read-out: Clp.
Data set [18] deals with T1, C-C chemokine receptor type 5. Put plainly: Inhibitory concentration of compound to displace GP120 from […] chemokine receptor 5. The source holds these as a separate data set.
The subject of data set [19] is Rattus norvegicus. The data set is described as follows: Area under curve in rat after peroral administration. In kind it is ADME, organism-based. Conditions: in vivo, po.

T1 sequence (P51681 whole entry): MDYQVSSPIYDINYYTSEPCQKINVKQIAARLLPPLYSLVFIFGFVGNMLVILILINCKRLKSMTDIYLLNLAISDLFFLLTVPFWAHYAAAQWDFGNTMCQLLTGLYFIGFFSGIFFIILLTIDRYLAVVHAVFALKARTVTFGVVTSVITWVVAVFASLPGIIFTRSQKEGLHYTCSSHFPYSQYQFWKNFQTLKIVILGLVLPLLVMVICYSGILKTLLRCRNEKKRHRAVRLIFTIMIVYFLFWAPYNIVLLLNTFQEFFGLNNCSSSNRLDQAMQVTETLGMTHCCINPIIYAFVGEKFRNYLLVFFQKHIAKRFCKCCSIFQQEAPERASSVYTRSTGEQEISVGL

`CCn1nc(Cc2ccccc2)cc1C1CCN(C[C@H]2CN([C@H](CC(C)C)C(=O)O)C[C@@H]2c2ccccc2)CC1`: the IC95 was 125 nM in [1] and below 8 nM in [8]. The half-life in “in vivo [2]” was 72 min. For the same compound, in [3], the IC50 turned out to be 2.9 nM. This compound came in with a Vdss with Rattus norvegicus [4] of 2.1 L/kg. In addition, the IC90 in the data set with HeLa was determined as 3.7 nM. The compound also yielded a clearance in “in vivo [5]” of 43 mL/min/kg. In data set [6], this compound showed a bioavailability of 17%. For the same compound, in the data set on Rattus norvegicus [7], the “AUC N” value came to 0.13 uM hr dose-1.
Compound `CCn1nc(Cc2ccccc2)cc1C1CCN(C[C@H]2CN([C@@](C)(C(=O)O)C(C)C)C[C@@H]2c2cccc(F)c2)CC1` gave an IC50 in data set [9] of 1.6 nM. Further, in the data set on HeLa, the IC90 was 300 nM.
`CCn1nc(Cc2ccccc2)cc1C1CCN(C[C@H]2CN([C@@H](C(=O)O)C(C)C)C[C@@H]2c2ccccc2)CC1`: in “in vivo [2]”, the half-life was 336 min. For the same compound, the IC50 in data set [3] was 2.8 nM. In addition, the clearance in [10] was determined as 12.6 mL/min/kg. The same compound showed an IC90 in the data set with HeLa of 11 nM. Also, the bioavailability in [6] was 17%. For the same compound, the “AUC N” value in the data set with Rattus norvegicus [7] worked out at 0.45 uM hr dose-1.
With `CCn1nc(Cc2ccccc2)cc1C1CCN(C[C@H]2CN([C@@H](C(=O)O)C(C)(C)C)C[C@@H]2c2cccc(F)c2)CC1`, the IC50 in data set [9] is 0.8 nM. Also, the bioavailability in data set [11] came out at 44%; in data set [6] it was 71%. Moreover, the clearance was found to be 13 mL/min/kg in data set [12] and 5.7 mL/min/kg in the data set “in vivo [5]”. In addition, the half-life in “in vivo [2]” is 47.4 min; in data set [13], 38.4 min. Also, in the data set on HeLa, the IC90 is below 0.14 nM. Also, the “AUC N” value with Canis familiaris was found to be 1 uM hr dose-1; with Rattus norvegicus [7], 3.7 uM hr dose-1.
In the case of `CCn1nc(Cc2ccccc2)cc1C1CCN(C[C@H]2CN([C@H](CC3CCC3)C(=O)O)C[C@@H]2c2cccc(F)c2)CC1`, in [9], the IC50 was 1.2 nM. The IC95 in data set [1] is 35 nM; in data set [8], below 0.8 nM. The same compound gave a half-life in “in vivo [2]” of 42.6 min. Moreover, the clearance in [10] came out at 46 mL/min/kg. Besides, the 90% effect concentration (IC90) in the data set on HeLa was 0.4 nM. In [6], this compound gave a bioavailability of 7.3%. Further, in the data set with Rattus norvegicus [7], the “AUC N” value is 0.05 uM hr dose-1.
As to `CCn1nc(Cc2ccccc2)cc1C1CCN(C[C@H]2CN([C@@H](C(=O)O)C(C)C)C[C@@H]2c2cccc(F)c2)CC1`, the concentration for half-maximal inhibition (IC50) in data set [9] amounted to 1.5 nM. Moreover, the bioavailability is 20% in data set [11], 4.7% in [14] and 11% in [6]. In addition, the IC95 was 350 nM in data set [1] and 22 nM in [8]. For the same compound, the half-life in data set [15] was 78 min; in “in vivo [2]”, 84 min; in data set [13] it was 204 min. Also, the clearance was found to be 3.5 mL/min/kg in [12], 20 mL/min/kg in data set [17] and 3.2 mL/min/kg in the data set “in vivo [5]”. Also, the entries for the “AUC N” value (in data set [16]; in the data set with Canis familiaris; in the data set with Rattus norvegicus [7]) were 0.08 uM hr dose-1, 1.9 uM hr dose-1 and 1.1 uM hr dose-1, respectively. In addition, the 90% effect level in the data set with HeLa (IC90) was put at 3.7 nM.
Turning to `CC[C@H](C)[C@H](C(=O)O)N1C[C@H](CN2CCC(c3cc(Cc4ccccc4)nn3CC)CC2)[C@@H](c2cccc(F)c2)C1`, the IC50 in [9] came out at 0.9 nM. Besides, the IC90 in the data set with HeLa amounted to 0.4 nM.
Compound `CCn1nc(Cc2ccccc2)cc1C1CCN(C[C@H]2CN([C@H](CC3CC3)C(=O)O)C[C@@H]2c2cccc(F)c2)CC1` came in with an IC50 in data set [9] of 1.2 nM. In addition, the figures for the IC95 in [1] and in [8] were 31 nM and below 8 nM, respectively. Moreover, the half-life in “in vivo [2]” is 15 min. In addition, in [10], the clearance stood at 81 mL/min/kg. In the data set on HeLa, this compound displayed an IC90 of 0.4 nM. In data set [6], this compound showed a bioavailability of 8.1%. Moreover, the “AUC N” value in the data set with Rattus norvegicus [7] amounted to 0.03 uM hr dose-1.
In turn, `CCn1nc(Cc2ccccc2)cc1C1CCN(C[C@H]2CN([C@@H](C(=O)O)C3CCC3)C[C@@H]2c2ccccc2)CC1` displayed an IC50 in data set [9] of 1.6 nM. Also, the half-life in the data set “in vivo [2]” is 60 min. Besides, in data set [10], the clearance was 60 mL/min/kg. This compound also had an IC90 in the data set on HeLa of 3.7 nM. This compound had a bioavailability in [6] of 11%. The “AUC N” value in the data set on Rattus norvegicus [7] is on record as 0.06 uM hr dose-1.
For `CCn1nc(Cc2ccccc2)cc1C1CCN(C[C@H]2CN([C@@H](C(=O)O)C3CCCCC3)C[C@@H]2c2cccc(F)c2)CC1`, the IC50 in data set [9] amounted to 1.6 nM. Besides, in the data set with HeLa, the 90% effect concentration (IC90) is 0.4 nM.
In [18], `CCn1nc(Cc2ccccc2)cc1C1CCN(C[C@H]2CN([C@@H](C(=O)O)C3CCCCC3)C[C@@H]2c2ccccc2)CC1` returned an IC50 of 2 nM. For the same compound, the concentration for an effect of 95% (IC95) in data set [1] and in data set [8] was below 8 nM each time. The same compound displayed an IC90 with HeLa of 0.4 nM. Further, in the data set with Rattus norvegicus [19], the “AUC N” value was determined as 0.02 uM hr dose-1.
In the case of `CCn1nc(Cc2ccccc2)cc1C1CCN(C[C@H]2CN([C@](C)(C(=O)O)C(C)C)C[C@@H]2c2cccc(F)c2)CC1`, the IC50 in [9] is 5.5 nM. Moreover, the half-life in the data set “in vivo [2]” is 44.4 min. This compound also gave a Vdss in the data set on Rattus norvegicus [4] of 0.43 L/kg. Further, the IC90 in the data set with HeLa is above 300 nM. The same compound displayed a clearance in “in vivo [5]” of 10 mL/min/kg. In data set [6], this compound showed a bioavailability of 21%. Moreover, the “AUC N” value with Rattus norvegicus [7] was 0.62 uM hr dose-1.
`CC[C@@H](C)[C@H](C(=O)O)N1C[C@H](CN2CCC(c3cc(Cc4ccccc4)nn3CC)CC2)[C@@H](c2cccc(F)c2)C1`: the IC50 in [9] stood at 0.8 nM. This compound also showed a half-life in “in vivo [2]” of 32.4 min. The IC90 with HeLa was below 0.14 nM. Besides, in the data set “in vivo [5]”, the clearance was found to be 25 mL/min/kg. In data set [6], this compound came in with a bioavailability of 13%. The “AUC N” value in the data set with Rattus norvegicus [7] is 0.16 uM hr dose-1.
`CCC(CC)[C@H](C(=O)O)N1C[C@H](CN2CCC(c3cc(Cc4ccccc4)nn3CC)CC2)[C@@H](c2cccc(F)c2)C1` yielded an IC50 in data set [9] of 0.9 nM. For the same compound, in the data set “in vivo [2]”, the half-life is 35.4 min. In the data set on HeLa, this compound displayed an IC90 of 0.4 nM. This compound showed a clearance in the data set “in vivo [5]” of 19 mL/min/kg. Further, the bioavailability in data set [6] is 52%. For the same compound, in the data set with Rattus norvegicus [7], the “AUC N” value was found to be 0.8 uM hr dose-1.

As a reminder, the IC95 is the concentration at which the effect reaches the 95% level. By half-life is commonly meant how long it takes for the measured level to halve. The term IC50 denotes the concentration that inhibits the measured activity by half. By IC90 is commonly meant the concentration at which the effect reaches the 90% level. In general, bioavailability refers to dose-corrected exposure relative to a reference, in per cent.
